The test system of the assay is indicator strains. Description: Deferred antagonism assay, producer S. salivarius K12: total strains inhibited. The class given is cell-based. To be noted: K12. As to the method: 1-2 producer strain colonies were transferred from a stock plate into 900 μL of suspension solution using a fresh cotton swab. Following this, suspensions were vortexed, and a sample was inoculated onto solid culture media using a fresh cotton swab. The inoculation was a streak that runs diametrically across the agar plate in a 1.5 cm wide strip. The plate was then incubated. Following incubation all visible colonies were removed by swabbing them from the agar surface. The plates were then treated with chloroform by dispensing 2 ml of chloroform onto 4 cm×4 cm piece of cloth and sealing the inverted agar plate on top for 30 minutes. The plates were then air dried for 30 minutes following chloroforming. 1-2 indicator strain colonies were then transferred from a stock plate into complementary suspension solution. The suspensions were then vortexed, and a sample was inoculated onto the same agar surface. These samples were streaked in a perpendicular direction to the initial producer streak.
Each indicator streak was prepared with fresh a suspension containing cells from a corresponding stock plate containing the indicator strain of interest. Indicator strains suspension samples were transferred using a fresh cotton swab. Results were measured by qualitatively reviewing the subsequent (if any) sizes of the zones of inhibition (ZOI) of indicator strain colony growth. A positive result is when there is a distinctive reduction or complete inhibition of indicator colony growth on the culture medium.
CABCa agar plates containing various concentrations of saccharide were prepared according to the methods described in Method 1. Producer strains were transferred from stock agar plates into 900 μL THB using a fresh cotton swab. A plastic spread plater was cut to approximately 1.2 cm width and then dipped into ethanol and left to air dry to ensure sterility. A 100 μL sample of the producer strain suspension was then dispensed onto the agar surface in a straight line running diametrically across the agar surface in (approximately) 20 μL spots. The spots were spaced approximately 1.5 cm apart from each other. The plastic spreader was then used to evenly distribute the spots across the agar surface in a 1.5 cm wide strip. This step was taken to ensure an even producer streak was inoculated onto the agar surface and provided an approximate measure of the initial inoculum concentration. Separate plastic spreaders were used for samples containing different producer strains. The samples were left to soak into the agar surface until there was no visible liquid remaining on the agar surface (approximately 20 minutes). Following producer streak preparations, the deferred antagonism assay protocol was followed as per Method 2. Results were recorded by measuring the size of the zone of inhibition (ZOI) in mm.
A dose response assay was carried out according to method 3 above, except a 1.2 cm streak was used. For the individual saccharide testing the pH of the producer streak was adjusted after the growth of producer to change the acidic conditions.
A deferred antagonism assay was conducted using K12 or M18 raw ingredient suspended in Todd Hewitt broth (THB). This was spread as a 1.2 cm streak containing approximately 1-2×10^6 cfu down the middle of a CABCa control or CABCa galactose supplemented test plate. After 18 hrs growth at 37° C. with 5% CO2, bacterial growth was removed, and the pH of the agar in the initial streak was measured and adjusted to a pH of 6.5-7.5 using 0.5M sodium carbonate pH11 before sterilizing the agar surface using chloroform vapor. Bacterial test strains were suspended in i-THB before being swabbed across the plates perpendicular to the initial streak. Plates were incubated for a further 18 hrs incubation at 37° C. with 5% CO2 before measuring (mm) any zones of inhibition for each test strain, […]

For `O=C(CO)[C@@H](O)[C@H](O)[C@H](O)CO` [Fructose, D-(−) Fructose, reference compound], the Total strains inhibited reads like this: (saccharide 3.3% w/v) 0/3; (saccharide range 0.83%-3.3% w/v) 0/3.
